Measured values: patent US20240165241A1, “TARGETED DELIVERY OF DRUG MOLECULES WITH DRUG LIGANDS CONJUGATED TO RNA NANOPARTICLE MOTION ELEMENTS” (Ohio State Innovation Foundation, priority 2022, published 2024)

Assays:
KB cells = test: PI/Annexin V-FITC apoptosis assay; format: cell-based; details: 500 nM, 24 hr
Description: Cell apoptosis effect induced by RNA nanoparticles was evaluated using FITC Annexin V Apoptosis Detection Kit (BD Pharmingen) following manufacturer instructions. Briefly, 5×10^4 KB cells were seeded on a 24-well plate overnight. RNA nanoparticles and free MTX were added into 24-well plate at a final concentration of 500 nM. After a 24 hr incubation at 37° C. in a humidified 5% CO2 environment, cells were trypsinized to single cell suspension, washed with PBS buffer twice, and resuspended in 100 μL 1× Annexin V-FITC binding buffer. Following this 5 μL of Annexin V-FITC and 5 μL of PI were added into each sample and incubated at room temperature for 15 min. The samples were then transferred into flow tubes that contained 200 μL of 1× binding buffer for FACS analysis by FACS Calibur™ flow cytometer within 1 hr. Data were analyzed by FlowJo.

[1] = Water solubility of SN38 after conjugation to RNA (absorbance at 366 nm); format: physicochemical; details: absorbance at 366 nm versus concentration 12.5-800 μM
Description: Three solutions were prepared, RNA-SN38 in DEPC H2O, SN38 in DEPC H2O, and SN38 in DMSO. The absorbance at 366 nm of these three solutions with different concentrations (12.5-800 μM) were measured by NanoDrop 2000 Spectrophotometer (ThermoFisher). […] The picture of RNA-SN38 and SN38 in DEPC H2O at 800 μM were taken for comparison of clarity and turbidity.

Row | SMILES | cells underwent apoptosis (KB cells) [%] | solubility in water [1]
1 | CN(Cc1cnc2nc(N)nc(N)c2n1)c1ccc(C(=O)N[C@@H](CCC(=O)O)C(=O)O)cc1 [MTX, Methotrexate] | 69.4 | –
2 | CCc1c2c(nc3ccc(O)cc13)-c1cc3c(c(=O)n1C2)COC(=O)[C@]3(O)CC [SN38, 7-Ethyl-10-hydroxycamptothecin] | – | poor water solubility
